According to the METLIN SMRT retention time set (Domingo-Almenara et al. 2019):

test: gradient 5% acetonitrile 3 min, to 50% in 2 min, to 85% in 15 min, held 3 min, 100 µL/min; settings: column: Zorbax Extend-C18 2.1 x 50 mm; eluents: water / acetonitrile, 0.1% formic acid
How it was run: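 Using water and acetonitrile that each contained 0.1% formic acid, mixtures of ~100 pure standards were separated at 100 μL/min on a Zorbax Extend-C18 column (2.1 × 50 mm, 1.8 μm). The HPLC fed a quadrupole time-of-flight mass spectrometer working in positive and negative ionization mode, with dead and dwell volumes of 40 μL and 900 μL. Data were acquired over 3 months. Retention time was read from computationally picked adduct peaks after manual inspection of each.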

SMILES	RP-LC retention time
O=C(COc1ccc(F)cc1)N1CCN(CC(F)(F)F)CC1	771 s
COc1ccc(Cl)cc1C(=O)Nc1ccc2c(c1)C(=O)NCCO2	951 s
Cc1ccc(CN2C(=O)NC3(CCN(C(=O)c4cccn4C)CC3)C2=O)cc1	787 s
CC(C)n1cnc(S(=O)(=O)N2CCCC(C(=O)Nc3cccc(F)c3)C2)c1 (centres undefined)	726 s
CN(CC(=O)N1CCN(c2cccc(Cl)c2)CC1)S(=O)(=O)c1c[nH]c(C(=O)N2CCCC2)c1	834 s
Cc1ccc(NC(=O)C2(C)Oc3cccnc3N(C)C2=O)cc1 (centres undefined)	845 s
COc1ccc(CCC(=O)NC(CC(C)C)C(=O)Nc2nc3ccccc3[nH]2)cc1 (centres undefined)	745 s
Cc1nc2cc(-c3noc(-c4ccc(F)c(Cl)c4)n3)ccc2o1	1270 s
CCc1ccc(CNC(=O)CCCN2C(=O)CCn3nc(C)cc32)cc1	726 s
COc1ccc(NC(=O)CSc2ccc(N3CCCC(C(=O)NC4CC4)C3)nn2)cc1OC (centres undefined)	596 s
CCOc1ccc(-c2ccc(=O)n(CCCC(=O)Nc3ccccc3SC)n2)cc1	853 s
CCN1c2cc(F)ccc2C(=O)NC12CCN(C(=O)c1ccc(OC)c(OC)c1)CC2	740 s
CSc1nnc(NC(=O)c2ccccc2[N+](=O)[O-])s1	672 s
O=C(NCCc1noc(C2CC2)n1)c1ccc(Cl)s1	795 s
O=C(Nc1cc(-c2ccccc2)nn1CCO)c1ccsc1	726 s
COCCCN(C(=O)c1ccccc1)C(C)C(=O)c1c(C)[nH]c(C(=O)OC)c1C (centres undefined)	736 s
CC1=C(c2ccccc2)S(=O)(=O)N=C1N1CCCN(C(=O)c2ccc(Cl)cc2)CC1	863 s
OC(CN1CCN(c2ccc(F)cc2)CC1)c1ccc2c(c1)OCO2 (centres undefined)	635 s
CCc1nnc2c(=O)n(CC(=O)NCc3ccccc3)c3cccnc3n12	688 s
CCCN1C(=O)c2cc(S(=O)(=O)Nc3ccc(F)c(F)c3)ccc2Oc2cccnc21	1100 s
CC1=NS(=O)(=O)N(C)C=C1C(=O)OCc1c(F)cccc1Cl	968 s
CCCCNC(=O)c1nc(Nc2ccc(C)cc2)c2ccccc2n1	831 s
COc1c(C(=O)NCc2ccc(C)o2)sc2ccc(Cl)cc12	1120 s

SMILES	RP-LC retention time
CCOc1ccccc1NC(=O)C(=O)NCc1cc(C)oc1C	697 s
Cc1cc(C)cc(NS(=O)(=O)c2cc(-c3nc(C(C)C)cs3)cs2)c1	1210 s
COc1cc(CNCCc2ccc(S(N)(=O)=O)cc2)ccc1Oc1nnnn1-c1ccccc1	672 s
C=CCn1c(=O)c2ccccc2n(Cc2nc(-c3ccccc3Cl)no2)c1=O	1020 s
Cc1nnc(C2CCCCCN2C(=O)c2ocnc2C)o1 (centres undefined)	628 s
Cc1nc2cc(-c3noc(COc4ccccc4)n3)ccc2o1	1030 s
COc1ccc(C(=O)NC(CC(C)C)C(=O)Nc2nc3ccccc3[nH]2)cc1 (centres undefined)	725 s
CC(C)N1C(=O)c2cccnc2Sc2cc(C(=O)NCC3CCCO3)ccc21 (centres undefined)	695 s
COc1ccc(NC(=O)CSc2ccc(N3CCCC(C(=O)NC4CC4)C3)nn2)cc1Cl (centres undefined)	624 s
CCc1nc(-c2csc(S(=O)(=O)N3CCCC(C(=O)Nc4c(C)cc(C)cc4C)C3)c2)no1 (centres undefined)	1210 s
CC(C)CNC(=O)C1CCN(c2nc3ccsc3c(=O)n2Cc2ccc(F)cc2)CC1	884 s
Cc1ccnc(N2CCCC(C(=O)NCC3CCN(Cc4ccccc4F)CC3)C2)n1 (centres undefined)	608 s
CCOc1ccc(-c2nc3ncccn3c2NCc2ccc(C)cc2)cc1OC	773 s
Cc1ccc(CNC(=O)C2CCN(S(=O)(=O)c3cc(C(=O)N4CCCCCC4)cs3)CC2)o1	862 s
COc1ccc(C2CC(=O)N(c3ccccc3)C(=O)C2)cc1	842 s
COCCN1CC2(CCN(S(=O)(=O)c3cc(C)c(C)cc3C)CC2)C1c1ccncc1 (centres undefined)	672 s
CCn1c(=O)c2c(nc3n2CCCN3C2CCCCC2)n(C)c1=O	899 s
CCCn1c(=O)sc2cc(S(=O)(=O)N3CCC(C(=O)Nc4ccc(C)c(F)c4)CC3)ccc21	1060 s
CCOc1ccccc1CN1CCc2nc(N3CCN(CC)CC3)ncc2C1	1120 s
O=C(c1ccccc1)N1CCN(c2cc(-c3cccs3)[nH]n2)CC1	754 s
COc1cccc(-c2noc(Cn3c(=O)n(Cc4ccccc4)c(=O)c4sccc43)n2)c1	911 s
O=C(CC1CCCCC1)Nc1ccc(-c2cn3cccnc3n2)cc1	688 s
Cc1ccc(-c2nnc(-c3cccnc3N3CCN(C(=O)c4ccc(Br)o4)CC3)o2)cc1	1020 s

SMILES	RP-LC retention time
CC1=C2C(=O)[C@H]3[C@@H](CC=C4C[C@@H](O)CC[C@@]43C)[C@@H]2CC[C@]12O[C@@H]1C[C@H](C)CN[C@H]1C2C (some centres undefined)	699 s
CCCNC(=O)N1C[C@@H]2C(=O)N(Cc3ccc4c(c3)OCO4)C(=O)[C@@H]2C1	708 s
CNC(=O)C1CN(C(=O)c2ccccc2C(F)(F)F)CC12CCCC2 (centres undefined)	609 s
CCCNc1cc(N2CCC(CCC(=O)O)CC2)ncn1	600 s
CCn1cc(S(=O)(=O)N2C[C@@H](COC)[C@H](c3ccccn3)C2)cn1	625 s
CN(C)c1cc(OC2CCN(C(=O)c3cnn4cccnc34)C2)ncn1 (centres undefined)	578 s
COc1ccc(C2Cn3cnc(C(=O)N4CCC(C(=O)NCC5CC5)CC4)c3CO2)cc1 (centres undefined)	649 s
O=C(c1ccc2c(c1)ncn2CCN1CCCC1)N1CCN(c2ccccc2F)CC1	596 s
CCc1ccc(CNC(=O)Cn2cnc3nc4c(cc3c2=O)CCCC4)cc1	765 s
NC(=O)c1cc(-c2ccc(F)cc2)nc2ccccc12	776 s
O=C(Cn1cccc1-c1nnc(-c2ccccc2)o1)NCCc1ccccc1	950 s
COc1ccc(-c2nc(-c3ccc4nnn(C(C)C)c4c3)no2)cc1OC	1020 s
Cc1ccc(N2CC(c3noc(-c4ccc(C)nc4)n3)CC2=O)cc1 (centres undefined)	799 s
Cc1nc(C)c(C(=O)N2CCCC2c2nc(-c3ccc(F)cc3F)no2)s1 (centres undefined)	837 s
Cc1ccc(CNC(=O)C2CCCN(S(=O)(=O)c3c[nH]c(C(=O)N4CCCC4)c3)C2)o1 (centres undefined)	729 s
O=C(Cn1nc(S(=O)(=O)c2cccc(F)c2)ccc1=O)N1CCN(c2ccc(F)cc2)CC1	882 s
CCOc1ccc(C2Cn3nnc(-c4nc(-c5ccccc5OC)no4)c3CO2)cc1 (centres undefined)	1090 s
CCc1nnc(-c2ccc3ccn(CC(=O)Nc4cc(OC)ccc4OC)c3c2)o1	770 s
CCOc1cccc(CNC(=O)c2cn3cc(Cl)ccc3n2)c1	886 s
CCOC(=O)c1c(C)n(C)c2ccc(OC(C)=O)cc12	889 s
C/C=C(\C)C(=O)O[C@H]1CC[C@@]2(C)[C@@H]3CC[C@H]4[C@]5(O)C[C@H](O)[C@@]6(O)[C@@H](CN7C[C@@H](C)CC[C@H]7[C@@]6(C)O)[C@]5(O)C[C@@]42O[C@]13O	692 s
O=C(c1ccsc1)N1CCC(c2nncn2-c2ccccc2)CC1	630 s
Cc1ccc(C(CC(=O)N2CCN(c3ccccn3)CC2)N2Cc3ccccc3C2=O)cc1 (centres undefined)	655 s

SMILES	RP-LC retention time
Cc1cccc(C(=O)N2CCN(c3c(C)n(C)c(=O)n(C)c3=O)CC2)c1	726 s
CCNC(=O)c1nc2cc(C)c(C)cc2n(C)c1=O	698 s
CC1CCCCN1CCNC(=O)CCCn1c2ccccc2c2cnn(C)c(=O)c21 (centres undefined)	632 s
COc1cccc(-c2cc(C(N)=O)n(C)n2)c1	646 s
CCc1ccc(NC(=O)c2cccn2Cc2noc(C)n2)cc1	910 s
Cc1ccc2c(c1)N(CCC(C)C)N=C(C(=O)N1CCCC1)S2(=O)=O	939 s
Cc1cccc(NC(=O)Cn2nc3c(Oc4ccc(Cl)cc4)nccn3c2=O)c1	930 s
CCn1ncc(N2CCCC(CC(=O)O)C2)cc1=O (centres undefined)	632 s
O=C(Nc1ccc(F)cc1)Nc1ccc2nncn2c1	659 s
COc1ccc(S(=O)(=O)Nc2c(C)n(C)n(-c3ccccc3)c2=O)cc1[N+](=O)[O-]	699 s
Cc1nc(Nc2ccccc2)sc1C(=O)NCC1CC1	800 s
CCCC(=O)N1CCc2c([nH]c3ccccc23)C12C(=O)Nc1ccc(Br)cc12 (centres undefined)	924 s
Cc1ccc(C(=O)N2CCN(c3nnc4cccc(C)n34)CC2)s1	659 s
O=C(CCCSc1ccc(NC(=O)C2CC2)nn1)NCc1ccccc1Cl	754 s
Cc1ccc2cc(CCC(=O)NCCN3CCCCCC3)c(=O)[nH]c2c1	628 s
CCCn1cnc2cc(CNC(=O)c3ccc(C(F)(F)F)cc3)ccc21	674 s
CN1C(=O)c2cc(C(=O)NCc3ccc(F)cc3)nn2CC1(C)C(=O)NC1CCCCCC1 (centres undefined)	840 s
CCN1CCCn2cc(S(=O)(=O)NCc3ccc(F)cc3Cl)cc2C1=O	771 s
COc1cc(C(=O)NCCc2c[nH]c3ccc(C)cc23)cc(OC)c1OC	814 s
CCC(Sc1nc2cc(OC)c(OC)cc2c2nc(C)nn12)C(=O)NCc1ccco1 (centres undefined)	746 s
